Like-named read-outs stand apart in the source and are kept apart here.
Key:
Cathepsin L = target: T1, Cathepsin L (Homo sapiens, UniProt P07711); type: biochemical
T1 construct: purchased

DPP4 = target: T2, DPP4 (Homo sapiens, UniProt P27487); type: biochemical
T2 construct: purchased
T2 sequence (P27487 whole entry): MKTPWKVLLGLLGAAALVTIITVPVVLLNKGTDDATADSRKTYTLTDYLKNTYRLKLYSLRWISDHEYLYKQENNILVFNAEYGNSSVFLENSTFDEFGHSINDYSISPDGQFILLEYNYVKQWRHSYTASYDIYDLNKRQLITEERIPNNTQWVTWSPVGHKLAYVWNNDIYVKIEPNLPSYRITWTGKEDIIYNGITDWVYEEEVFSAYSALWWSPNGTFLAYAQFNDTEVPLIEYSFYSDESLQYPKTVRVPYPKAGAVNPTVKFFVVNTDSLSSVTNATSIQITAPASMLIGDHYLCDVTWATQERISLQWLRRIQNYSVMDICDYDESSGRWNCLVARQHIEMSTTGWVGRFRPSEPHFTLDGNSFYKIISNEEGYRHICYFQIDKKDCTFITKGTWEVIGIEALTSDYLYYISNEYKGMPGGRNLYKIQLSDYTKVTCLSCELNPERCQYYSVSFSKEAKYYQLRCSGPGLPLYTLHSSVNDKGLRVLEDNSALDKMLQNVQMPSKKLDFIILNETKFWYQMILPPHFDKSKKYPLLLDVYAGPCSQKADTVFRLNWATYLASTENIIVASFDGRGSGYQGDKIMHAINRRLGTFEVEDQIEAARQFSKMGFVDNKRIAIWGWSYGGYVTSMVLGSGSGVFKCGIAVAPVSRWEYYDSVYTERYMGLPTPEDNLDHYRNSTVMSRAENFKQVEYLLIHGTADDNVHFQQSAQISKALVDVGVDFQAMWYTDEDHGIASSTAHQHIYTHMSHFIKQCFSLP

T1 sequence (P07711 114-333): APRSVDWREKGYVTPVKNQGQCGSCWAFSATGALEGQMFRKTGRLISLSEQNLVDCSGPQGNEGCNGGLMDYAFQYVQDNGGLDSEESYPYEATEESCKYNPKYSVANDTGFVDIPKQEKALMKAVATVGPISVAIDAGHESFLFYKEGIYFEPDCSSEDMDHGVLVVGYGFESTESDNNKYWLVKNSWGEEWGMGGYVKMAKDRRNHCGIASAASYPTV

CC(C)C[C@H](NC(=O)[C@H]1O[C@@H]1C(=O)O)C(=O)NCCCCN=C(N)N [E-64]
% Inhibition wrt Enzyme Control (Cathepsin L; 0.0001 μM): 7.4%
% Inhibition wrt Enzyme Control (Cathepsin L; 0.01 μM): 24.2%
% Inhibition wrt Enzyme Control (Cathepsin L; 0.1 µM): 61.0%

CC(C)C[C@H](NC(=O)OCc1ccccc1)C(=O)N[C@@H](C[C@@H]1CCNC1=O)C(O)S(=O)(=O)[O-].[Na+] (stereo partly shown) [GC376]
% Inhibition wrt Enzyme Control (DPP4; 0.001 μM): 32.4%
% Inhibition wrt Enzyme Control (DPP4; 0.01 μM): 76.2%
% Inhibition wrt Enzyme Control (DPP4; 0.1 µM): 87.1%
% Inhibition wrt Enzyme Control (DPP4; 1 µM): 99.5%

From patent publication US20250041380A1, “R[…] FOR SARS-COV2 DISEASE” (priority 2021, published 2025)
